Test results published in the supplement of paper PMC10627819.

What was measured:
[1] = system: S. aureus DSM 20231; assay: fitness (endpoint OD595 vs no drug) (fraction); higher = more growth
Outline: (§1)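 Bacterial fitness was scored as optical density at the stationary-phase transition relative to the robust mean of no-drug control wells. Scores are capped at 1. The growth data were OD595 readings every 30 min for 14 h at 37 °C, background-subtracted against the first reading, from 384-well plates inoculated at OD595 0.01 in TSB, LB Lennox or CY.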

[2] = system: S. aureus Newman; assay: as above
Outline: as §1

[3] = system: S. pneumoniae D39V; assay: as above
Outline: as §1

[4] = system: B. subtilis 168; assay: Bliss interaction score (quartile over a dose matrix) (fitness difference); higher = more antagonism (negative = synergy)
Outline: (§2)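 The Bliss score is observed minus expected fitness, where expected fitness is the product of the single-drug fitness values inferred from the combination data. Fitness is the OD595 at the onset of stationary phase over the plate's robust no-drug mean, capped at 1. Scores are summarised by quartiles over technical, biological and donor/recipient replicates.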

[5] = system: S. aureus DSM 20231; assay: as above
Outline: as §2

[6] = system: S. aureus Newman; assay: as above
Outline: as §2

[7] = system: S. pneumoniae D39V; assay: as above
Outline: as §2
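Wherever Bliss interaction score (quartile over a dose matrix) is given: first quartile when negative (synergy) and third quartile when positive (antagonism).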
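Wherever fitness (endpoint OD595 vs no drug) is given: OD595 on entry to stationary phase over no-drug wells; at most 1.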

CC1(C)S[C@@H]2[C@H](NC(=O)[C@H](N)c3ccc(O)cc3)C(=O)N2[C@H]1C(=O)O [Amoxicillin] + CC1=C\[C@@H](O)CC(=O)Cc2nc(co2)C(=O)N2CCC=C2C(=O)O[C@H](C(C)C)[C@H](C)/C=C/C(=O)NC\C=C\1 [Virginiamycin M1]
Settings | fitness
[1], first compound 0.0625 µg/mL, partner 0.0625 µg/mL | 0.48
[1], first compound 0.0625 µg/mL, partner 0.125 µg/mL | 0.488
[1], first compound 0.0625 µg/mL, partner 0.25 µg/mL | 0.504
[1], first compound 0.125 µg/mL, partner 0.0625 µg/mL | 0.329
[1], first compound 0.25 µg/mL, partner 0.125 µg/mL | 0.0421
[1], first compound 0.25 µg/mL, partner 0.25 µg/mL | 0.0398
[2], first compound 0.0625 µg/mL, partner 0.0625 µg/mL | 0.935
[2], first compound 0.0625 µg/mL, partner 0.125 µg/mL | 0.893
[2], first compound 0.0625 µg/mL, partner 0.25 µg/mL | 0.906
[2], first compound 0.125 µg/mL, partner 0.0625 µg/mL | 0.883
[2], first compound 0.125 µg/mL, partner 0.125 µg/mL | 0.948
[2], first compound 0.125 µg/mL, partner 0.25 µg/mL | 0.945
[2], first compound 0.25 µg/mL, partner 0.0625 µg/mL | 0.867
[2], first compound 0.25 µg/mL, partner 0.125 µg/mL | 0.921
[2], first compound 0.25 µg/mL, partner 0.25 µg/mL | 0.886
[3], first compound 0.0008 µg/mL, partner 0.5 µg/mL | 0.988
[3], first compound 0.0008 µg/mL, partner 1 µg/mL | ≥ 1
[3], first compound 0.0008 µg/mL, partner 2 µg/mL | 0.937
[3], first compound 0.0015 µg/mL, partner 0.5 µg/mL | 0.978
[3], first compound 0.0015 µg/mL, partner 1 µg/mL | 0.965
[3], first compound 0.0015 µg/mL, partner 2 µg/mL | 0.95
[3], first compound 0.003 µg/mL, partner 0.5 µg/mL | 0.926
[3], first compound 0.003 µg/mL, partner 1 µg/mL | 0.956
[3], first compound 0.003 µg/mL, partner 2 µg/mL | 0.914

one replicate
Settings | fitness
[1], first compound 0.0625 µg/mL, partner 0.5 µg/mL | 0.541
[1], first compound 0.0625 µg/mL, partner 1 µg/mL | 0.699
[1], first compound 0.125 µg/mL, partner 0.5 µg/mL | 0.444
[1], first compound 0.125 µg/mL, partner 1 µg/mL | 0.497
[1], first compound 0.25 µg/mL, partner 0.5 µg/mL | 0.0437
[1], first compound 0.25 µg/mL, partner 1 µg/mL | 0.108
[1], first compound 0.5 µg/mL, partner 0.0625 µg/mL | 0.0149
[1], first compound 0.5 µg/mL, partner 0.125 µg/mL | 0.0318
[1], first compound 0.5 µg/mL, partner 0.25 µg/mL | 0.0127
[2], first compound 0.125 µg/mL, partner 0.5 µg/mL | 0.81
[2], first compound 0.125 µg/mL, partner 1 µg/mL | ≥ 1
[2], first compound 0.125 µg/mL, partner 2 µg/mL | 0.845
[2], first compound 0.25 µg/mL, partner 0.5 µg/mL | 0.813
[2], first compound 0.25 µg/mL, partner 1 µg/mL | 0.865
[2], first compound 0.25 µg/mL, partner 2 µg/mL | 0.754
[2], first compound 0.5 µg/mL, partner 0.5 µg/mL | 0.74
[2], first compound 0.5 µg/mL, partner 1 µg/mL | 0.828
[2], first compound 0.5 µg/mL, partner 2 µg/mL | 0.732
[3], first compound 0.0008 µg/mL, partner 0.15 µg/mL | 0.996
[3], first compound 0.0008 µg/mL, partner 0.3 µg/mL | 0.892
[3], first compound 0.0015 µg/mL, partner 0.15 µg/mL | 0.948
[3], first compound 0.0015 µg/mL, partner 0.3 µg/mL | 0.9
[3], first compound 0.003 µg/mL, partner 0.15 µg/mL | 0.951
[3], first compound 0.003 µg/mL, partner 0.3 µg/mL | 0.906
[3], first compound 0.006 µg/mL, partner 0.5 µg/mL | 0.447
[3], first compound 0.006 µg/mL, partner 1 µg/mL | 0.474
[3], first compound 0.006 µg/mL, partner 2 µg/mL | 0.46

Settings | Bliss interaction score
[4] | -0.0567
[5] | -0.0553
[6] | 0.0682
[7] | -0.0459
